Data as given in ChEMBL document CHEMBL4800721, “Data for DCP probe A-446” (2021).
Values joined by “and” are separate entries in the source; they are usually repeats but may differ in a detail not shown here. Equal entries are not always repeated. Active and inactive are the calls of the source.

Experiments:
[1] = biological target: Glutaminase kidney isoform, mitochondrial (Homo sapiens, UniProt O94925); test: GLS Enzyme activity assay
[2] = biological target: Glutaminase liver isoform, mitochondrial (Homo sapiens, UniProt Q9UI32); test: GLS2 Enzyme activity assay
Sequence of Glutaminase liver isoform, mitochondrial (Q9UI32 whole entry, canonical isoform): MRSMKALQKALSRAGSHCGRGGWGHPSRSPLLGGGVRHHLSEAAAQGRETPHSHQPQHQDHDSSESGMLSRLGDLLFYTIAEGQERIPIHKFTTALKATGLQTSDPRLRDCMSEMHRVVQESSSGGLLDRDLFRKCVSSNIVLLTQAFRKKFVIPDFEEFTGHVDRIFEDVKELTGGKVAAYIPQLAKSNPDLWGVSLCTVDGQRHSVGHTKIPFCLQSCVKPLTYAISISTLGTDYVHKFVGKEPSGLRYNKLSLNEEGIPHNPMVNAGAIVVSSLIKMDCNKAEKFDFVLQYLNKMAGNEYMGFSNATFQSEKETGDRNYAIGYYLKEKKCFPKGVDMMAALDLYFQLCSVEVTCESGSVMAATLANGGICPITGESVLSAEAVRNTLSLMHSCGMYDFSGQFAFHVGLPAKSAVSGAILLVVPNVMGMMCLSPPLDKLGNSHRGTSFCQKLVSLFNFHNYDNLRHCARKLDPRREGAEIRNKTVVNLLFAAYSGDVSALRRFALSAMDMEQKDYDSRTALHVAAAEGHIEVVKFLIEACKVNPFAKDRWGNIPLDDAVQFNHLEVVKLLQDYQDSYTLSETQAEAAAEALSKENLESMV

[3] = GPCRScan assay: inhibition of GABA/PBR; design: species or system Rattus norvegicus; radioligand conc. used [nm] 0.3 – 2.0, parental cells brain tissue
[4] = biological target: Sigma non-opioid intracellular receptor 1 (Homo sapiens) (UniProt Q99720); details: Compound concentration 10.0 uM
[5] = biological target: Alpha-2B adrenergic receptor (Homo sapiens) (UniProt P18089); details: Compound concentration 10.0 uM
[6] = biological target: T1, 5-hydroxytryptamine receptor 1D (Homo sapiens, UniProt P28221); details: Compound concentration 10.0 uM
T1 sequence (P28221 whole entry): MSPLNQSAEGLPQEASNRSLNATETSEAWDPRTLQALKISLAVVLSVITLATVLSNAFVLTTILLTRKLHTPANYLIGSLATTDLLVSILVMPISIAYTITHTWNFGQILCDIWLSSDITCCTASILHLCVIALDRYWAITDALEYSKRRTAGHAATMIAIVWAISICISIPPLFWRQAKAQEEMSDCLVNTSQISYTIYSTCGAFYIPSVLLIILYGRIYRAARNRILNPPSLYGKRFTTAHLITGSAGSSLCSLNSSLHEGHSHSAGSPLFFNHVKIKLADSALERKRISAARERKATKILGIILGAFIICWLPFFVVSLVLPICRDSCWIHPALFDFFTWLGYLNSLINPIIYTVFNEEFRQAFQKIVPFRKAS

[7] = biological target: Histamine H2 receptor (Homo sapiens) (UniProt P25021); details: Compound concentration 10.0 uM
[8] = biological target: Histamine H4 receptor (Homo sapiens) (UniProt Q9H3N8); details: Compound concentration 10.0 uM
[9] = biological target: Sodium-dependent dopamine transporter (Homo sapiens) (UniProt Q01959); details: Compound concentration 10.0 uM
[10] = biological target: Muscarinic acetylcholine receptor M4 (Homo sapiens) (UniProt P08173); details: Compound concentration 10.0 uM
[11] = biological target: D(3) dopamine receptor (Homo sapiens) (UniProt P35462); details: Compound concentration 10.0 uM
[12] = biological target: 5-hydroxytryptamine receptor 1B (Homo sapiens) (UniProt P28222); details: Compound concentration 10.0 uM
[13] = biological target: 5-hydroxytryptamine receptor 2B (Homo sapiens) (UniProt P41595); details: Compound concentration 10.0 uM
[14] = biological target: D(4) dopamine receptor (Homo sapiens) (UniProt P21917); details: Compound concentration 10.0 uM
Sequence of D(4) dopamine receptor (Homo sapiens) (P21917 whole entry): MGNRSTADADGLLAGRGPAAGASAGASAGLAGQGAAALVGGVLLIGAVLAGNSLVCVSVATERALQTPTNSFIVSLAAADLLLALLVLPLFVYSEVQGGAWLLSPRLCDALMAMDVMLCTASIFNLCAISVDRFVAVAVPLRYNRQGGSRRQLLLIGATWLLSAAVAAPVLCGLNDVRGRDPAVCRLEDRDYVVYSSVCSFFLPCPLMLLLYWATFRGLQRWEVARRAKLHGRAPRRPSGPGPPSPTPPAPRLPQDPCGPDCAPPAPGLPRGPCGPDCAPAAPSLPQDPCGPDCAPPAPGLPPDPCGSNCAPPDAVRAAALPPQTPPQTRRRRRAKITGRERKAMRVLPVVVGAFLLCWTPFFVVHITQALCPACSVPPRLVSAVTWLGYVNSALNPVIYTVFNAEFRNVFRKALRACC

[15] = biological target: 5-hydroxytryptamine receptor 5A (Homo sapiens) (UniProt P47898); details: Compound concentration 10.0 uM
Sequence of 5-hydroxytryptamine receptor 5A (Homo sapiens) (P47898 whole entry): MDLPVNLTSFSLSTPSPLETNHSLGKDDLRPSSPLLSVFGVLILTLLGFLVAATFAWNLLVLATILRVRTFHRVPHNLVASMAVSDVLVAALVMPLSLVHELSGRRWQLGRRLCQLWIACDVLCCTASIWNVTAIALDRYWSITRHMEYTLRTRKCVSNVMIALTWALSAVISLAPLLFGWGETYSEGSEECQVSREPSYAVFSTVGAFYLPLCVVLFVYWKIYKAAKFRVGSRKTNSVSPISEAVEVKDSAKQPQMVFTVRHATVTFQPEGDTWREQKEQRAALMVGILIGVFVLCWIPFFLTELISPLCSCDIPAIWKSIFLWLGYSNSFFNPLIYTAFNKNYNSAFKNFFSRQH

[16] = biological target: T1, 5-hydroxytryptamine receptor 1D; test: GPCRScan assay: inhibition of 5-HT1D; design: radioligand conc. used [nm] 1.0 – 2.0, parental cells HEKT
[17] = biological target: Muscarinic acetylcholine receptor M3 (Homo sapiens) (UniProt P20309); details: Compound concentration 10.0 uM
Sequence of Muscarinic acetylcholine receptor M3 (Homo sapiens) (P20309 whole entry, looked up): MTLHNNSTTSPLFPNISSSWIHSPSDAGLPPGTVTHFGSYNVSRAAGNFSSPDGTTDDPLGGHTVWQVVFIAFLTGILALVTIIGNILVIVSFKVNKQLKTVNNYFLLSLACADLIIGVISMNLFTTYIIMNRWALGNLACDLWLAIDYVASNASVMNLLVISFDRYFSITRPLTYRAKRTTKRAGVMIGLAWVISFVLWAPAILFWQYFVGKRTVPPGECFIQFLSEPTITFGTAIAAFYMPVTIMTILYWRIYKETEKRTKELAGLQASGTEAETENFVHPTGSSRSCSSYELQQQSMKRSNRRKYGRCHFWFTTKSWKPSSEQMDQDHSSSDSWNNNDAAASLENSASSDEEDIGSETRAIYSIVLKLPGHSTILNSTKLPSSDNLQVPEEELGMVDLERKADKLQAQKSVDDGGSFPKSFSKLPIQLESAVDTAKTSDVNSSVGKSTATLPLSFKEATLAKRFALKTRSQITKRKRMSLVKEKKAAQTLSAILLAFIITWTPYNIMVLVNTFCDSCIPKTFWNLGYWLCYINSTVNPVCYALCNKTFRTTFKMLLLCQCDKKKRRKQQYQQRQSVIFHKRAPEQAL

[18] = biological target: Histamine H1 receptor (Homo sapiens) (UniProt P35367); details: Compound concentration 10.0 uM
[19] = biological target: 5-hydroxytryptamine receptor 1E (Homo sapiens) (UniProt P28566); details: Compound concentration 10.0 uM
[20] = biological target: 5-hydroxytryptamine receptor 6 (Homo sapiens) (UniProt P50406); details: Compound concentration 10.0 uM
[21] = biological target: Alpha-2C adrenergic receptor (Homo sapiens) (UniProt P18825); details: Compound concentration 10.0 uM
Sequence of Alpha-2C adrenergic receptor (Homo sapiens) (P18825 whole entry): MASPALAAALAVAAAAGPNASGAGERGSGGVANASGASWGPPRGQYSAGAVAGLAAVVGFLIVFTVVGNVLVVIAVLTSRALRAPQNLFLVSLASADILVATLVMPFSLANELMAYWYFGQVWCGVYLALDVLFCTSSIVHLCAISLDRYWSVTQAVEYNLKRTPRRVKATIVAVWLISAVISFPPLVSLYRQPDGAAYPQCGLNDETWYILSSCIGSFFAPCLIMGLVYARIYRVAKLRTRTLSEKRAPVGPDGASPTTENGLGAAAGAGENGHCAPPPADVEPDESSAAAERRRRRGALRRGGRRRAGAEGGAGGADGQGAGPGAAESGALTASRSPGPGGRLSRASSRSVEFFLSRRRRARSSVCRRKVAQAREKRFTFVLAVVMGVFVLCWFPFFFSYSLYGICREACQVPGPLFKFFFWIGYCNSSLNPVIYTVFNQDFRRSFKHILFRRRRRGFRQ

[22] = biological target: Delta-type opioid receptor (Homo sapiens) (UniProt P41143); details: Compound concentration 10.0 uM
[23] = biological target: 5-hydroxytryptamine receptor 7 (Homo sapiens, UniProt P34969); test: GPCRScan assay: inhibition of 5-HT7A; design: radioligand conc. used [nm] 5.0 – 6.0, parental cells Stable HEK
Sequence of 5-hydroxytryptamine receptor 7 (P34969 whole entry): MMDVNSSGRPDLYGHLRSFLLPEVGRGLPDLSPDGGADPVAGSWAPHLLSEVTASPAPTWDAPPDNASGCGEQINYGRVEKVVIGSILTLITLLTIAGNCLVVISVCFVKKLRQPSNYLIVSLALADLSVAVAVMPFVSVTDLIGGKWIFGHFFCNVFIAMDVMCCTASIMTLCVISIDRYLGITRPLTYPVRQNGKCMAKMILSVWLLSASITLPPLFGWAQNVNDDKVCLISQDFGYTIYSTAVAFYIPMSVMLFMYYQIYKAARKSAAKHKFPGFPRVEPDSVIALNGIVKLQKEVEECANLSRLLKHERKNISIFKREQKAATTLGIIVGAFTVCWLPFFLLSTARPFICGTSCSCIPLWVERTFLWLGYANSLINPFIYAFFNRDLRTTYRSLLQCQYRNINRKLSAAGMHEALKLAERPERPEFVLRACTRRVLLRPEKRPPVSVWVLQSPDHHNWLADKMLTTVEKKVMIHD

[24] = biological target: Muscarinic acetylcholine receptor M1 (Homo sapiens) (UniProt P11229); details: Compound concentration 10.0 uM
Sequence of Muscarinic acetylcholine receptor M1 (Homo sapiens) (P11229 whole entry): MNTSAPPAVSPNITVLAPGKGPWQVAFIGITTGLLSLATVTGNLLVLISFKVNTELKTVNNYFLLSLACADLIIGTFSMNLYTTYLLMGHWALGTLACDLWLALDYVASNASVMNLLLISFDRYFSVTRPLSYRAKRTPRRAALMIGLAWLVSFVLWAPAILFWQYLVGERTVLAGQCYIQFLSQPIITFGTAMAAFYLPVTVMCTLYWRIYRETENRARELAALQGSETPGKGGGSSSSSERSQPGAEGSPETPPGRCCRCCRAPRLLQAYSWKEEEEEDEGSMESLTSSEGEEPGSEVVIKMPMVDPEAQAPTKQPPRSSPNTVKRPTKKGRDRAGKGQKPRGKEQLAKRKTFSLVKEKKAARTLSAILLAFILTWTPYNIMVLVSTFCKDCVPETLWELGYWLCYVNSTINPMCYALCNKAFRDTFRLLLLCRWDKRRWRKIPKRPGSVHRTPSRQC

[25] = biological target: Beta-1 adrenergic receptor (Homo sapiens) (UniProt P08588); details: Compound concentration 10.0 uM
[26] = biological target: Muscarinic acetylcholine receptor M5 (Homo sapiens) (UniProt P08912); details: Compound concentration 10.0 uM
Sequence of Muscarinic acetylcholine receptor M5 (Homo sapiens) (P08912 whole entry): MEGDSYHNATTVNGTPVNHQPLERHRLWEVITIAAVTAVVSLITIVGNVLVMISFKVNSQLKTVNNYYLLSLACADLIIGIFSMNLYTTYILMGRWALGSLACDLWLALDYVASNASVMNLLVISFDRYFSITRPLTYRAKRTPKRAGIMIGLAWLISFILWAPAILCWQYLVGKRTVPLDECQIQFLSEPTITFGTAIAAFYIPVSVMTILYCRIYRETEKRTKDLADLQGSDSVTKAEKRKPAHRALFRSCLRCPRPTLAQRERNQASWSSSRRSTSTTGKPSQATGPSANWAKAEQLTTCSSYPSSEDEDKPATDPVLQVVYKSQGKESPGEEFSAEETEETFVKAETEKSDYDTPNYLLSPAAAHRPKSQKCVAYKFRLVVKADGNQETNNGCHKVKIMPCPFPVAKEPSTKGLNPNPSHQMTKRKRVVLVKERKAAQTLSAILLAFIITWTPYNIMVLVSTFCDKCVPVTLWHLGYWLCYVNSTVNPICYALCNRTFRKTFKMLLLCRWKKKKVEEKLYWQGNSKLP

[27] = biological target: Beta-2 adrenergic receptor (Homo sapiens) (UniProt P07550); details: Compound concentration 10.0 uM
[28] = biological target: Alpha-2A adrenergic receptor (Homo sapiens) (UniProt P08913); details: Compound concentration 10.0 uM
A549 = test: A549 CTG Assay; type: cell-based; details: Homo sapiens
[29] = biological target: Mu-type opioid receptor (Homo sapiens) (UniProt P35372); details: Compound concentration 10.0 uM
[30] = biological target: Kappa-type opioid receptor (Homo sapiens) (UniProt P41145); details: Compound concentration 10.0 uM
[31] = biological target: 5-hydroxytryptamine receptor 2A (Homo sapiens) (UniProt P28223); details: Compound concentration 10.0 uM
[32] = biological target: 5-hydroxytryptamine receptor 1A (Homo sapiens) (UniProt P08908); details: Compound concentration 10.0 uM
[33] = biological target: Sigma intracellular receptor 2 (Homo sapiens) (UniProt Q5BJF2); details: Compound concentration 10.0 uM
[34] = biological target: 5-hydroxytryptamine receptor 3A (Homo sapiens) (UniProt P46098); details: Compound concentration 10.0 uM

Sequence of Glutaminase kidney isoform, mitochondrial (O94925 whole entry, canonical isoform): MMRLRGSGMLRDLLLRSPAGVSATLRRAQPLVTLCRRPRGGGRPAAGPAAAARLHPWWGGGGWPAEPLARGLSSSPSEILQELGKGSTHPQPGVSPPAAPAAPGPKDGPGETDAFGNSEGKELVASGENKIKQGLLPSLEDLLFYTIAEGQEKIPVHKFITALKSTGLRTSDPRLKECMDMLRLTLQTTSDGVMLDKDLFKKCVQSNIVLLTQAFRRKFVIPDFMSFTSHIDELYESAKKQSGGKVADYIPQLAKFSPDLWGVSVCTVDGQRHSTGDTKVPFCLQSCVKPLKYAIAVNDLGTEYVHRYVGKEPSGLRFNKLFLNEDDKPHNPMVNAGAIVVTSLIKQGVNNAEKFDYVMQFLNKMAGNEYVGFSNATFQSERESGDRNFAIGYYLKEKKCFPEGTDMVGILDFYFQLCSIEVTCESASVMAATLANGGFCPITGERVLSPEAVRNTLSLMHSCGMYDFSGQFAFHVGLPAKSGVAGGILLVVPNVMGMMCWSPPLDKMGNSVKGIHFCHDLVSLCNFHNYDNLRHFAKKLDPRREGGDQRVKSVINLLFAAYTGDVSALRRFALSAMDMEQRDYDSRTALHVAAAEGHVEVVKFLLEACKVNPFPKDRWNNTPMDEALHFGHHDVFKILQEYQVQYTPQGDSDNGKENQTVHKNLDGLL

O=C(Cc1ccccc1)Nc1nnc(N2CC[C@@H]3[C@H]2CN3c2cccnn2)s1 [A-426]
> 30 µM (not active): IC50 [1] | IC50 [2]

O=C(Cc1ccccc1)Nc1nnc(N2C[C@H]3C[C@@H]2CN3c2cccnn2)s1 [A-446]
> 10 µM: Ki [3] | Ki ([16]; read-out: pKi (converted)) | Ki [23]
active: inhibition [6] 55.1% | IC50 [1] 0.031 µM | IC50 (A549) 0.0105 µM
< 5: pKi [3] | pKi [23]
> 10 µM and 6.45 µM: Ki ([16]; read-out: Ki)
> 30 µM (not active): IC50 [2]
inactive: inhibition [4] 9.03% | inhibition [5] -6.1% | inhibition [7] -5.22% | inhibition [8] 18.3% | inhibition [9] 33.5% | inhibition [10] -9.24% | inhibition [11] -3.72% | inhibition [12] 11.2% | inhibition [13] 1.83% | inhibition [14] -7.36% | inhibition [15] 4.08% | inhibition [17] 9.66% | inhibition [18] 21.3% | inhibition [19] -1.42% | inhibition [20] -4.23% | inhibition [21] 13.9% | inhibition [22] -2.96% | inhibition [24] 14.6% | inhibition [25] 1.03% | inhibition [26] 15% | inhibition [27] -8.05% | inhibition [28] 12.2% | inhibition [29] -3.29% | inhibition [30] 2.85% | inhibition [31] -2.63% | inhibition [32] 1.9% | inhibition [33] 6.42% | inhibition [34] 1.72%
